Like-named read-outs stand apart in the source and are kept apart here. Non-standard residues stand in square brackets, D forms with d. Residues, ends and D or L forms follow the SMILES beside them.
Tests used:
PC3 cells [1] = details: for cell survival: MTT
Protocol: 20,000 PC3 cells were plated overnight in 96 well plates (Costar) at a concentration of 200,000 cells/ml. They are treated with the peptides, doxorubicin, docetaxel alone, or in combination for different time period incubation and the cell viability was determined by MTT assay as described. The percentage survival of the cells with different treatments was calculated using DMSO-vehicle control-treated cells as the standard.

Chk2 in PC3 cells = experiment: Phospho-Chk2 by flow cytometry; assay type: cell-based; details: PC3, 1 µM doxorubicin on its own, 48 h
Protocol: They were subsequently treated with either 50-200 μM […] or 50-100 μM […] or 0.5-1 μM doxorubicin or combination treatment for 0, 12, 24, 36 and 48 h. […] Samples were analyzed using a Becton Dickinson FACS Canto flow cytometer at a forward scatter voltage of 25 V, side-scatter voltage of 400 V, and FITC channel at a voltage of 400 V.

HeLa cells = experiment: TUNEL assay, HeLa, with z-VAD-fmk or z-FA-fmk; assay type: cell-based
Protocol: 600,000 PC3 cells or 500,000 HeLa cells were plated in 60-mm dishes or 6-well plates respectively to allow them to attach overnight at 37°C with 5% CO2. PC3 cells were subsequently treated with appropriate treatments for 24, 36 and 48 h while HeLa cells were treated with 1 µl of either the caspase inhibitor z-VAD-fmk or z-FA-fmk (both from Biovision), containing appropriate treatments, for 24 h. The cells were fixed with 4% paraformaldehyde for 30 min and permeabilized with 0.1% Triton X-100 in 0.1% sodium citrate buffer for 3 mins. Labeled dUTP were added along with the terminal deoxynucleotidyl transferase dUTP nick end labeling (TUNEL) (TUNEL kit from Roche) as described in the kit. Samples were analyzed using a Becton Dickinson FACS Canto flow cytometer as specified above.

[2] = tested on: Htog1 cells (variant of HeLa cells); experiment: Cytochrome C release / TMRE assay for apoptosis; assay type: cell-based; details: 150 µM etoposide, 24 h, positive control
Protocol: 200,000 Htog1 cells (variant of HeLa cells, a generous gift from Drs. Terrence Frey and Maria Guo) were seeded on cover slips mounted on 35 mm microwell petri dishes (Mattek Corp, Ashland, MA) with DMEM supplemented with 10% FBS and allowed to attach overnight at 37°C in 5% CO2. The media was replaced with 1 ml of the appropriate treatment and incubated for 24 h. After 23 h of treatment, 50 µM tetramethyl rhodamine ethyl ester perchlorate (TMRE) solution was added to each well (final concentration 50 nM) and incubated for the remaining hour. Cytochrome C release and loss of TMRE staining were determined in Z-series images acquired using a Leica TCS SP2 inverted confocal microscope. GFP was excited using 488 nm wavelength from an Ar/Kr laser attenuated to 33%, and the emitted fluorescence detected at 497–553 nm. TMRE fluorescence was excited using a 543 nm wavelength from an Ar/Kr laser attenuated to 35%, and the emitted fluorescence detected at 555–620 nm. Each cell was analyzed for release of GFP (GFP channel), loss of mitochondrial membrane potential (TMRE loss) or morphological abnormalities associated with apoptosis, and the % cells positive for each hallmark was calculated for the various treatments.

LnCAP cells = assay type: cell-based; details: 48 h
DuPro-1 cells = assay type: cell-based; details: 48 h
PC3 cells [3] = experiment: HPLC determination of intracellular and extracellular peptide concentration; assay type: in vitro ADME
Protocol: 500,000 HeLa or 400,000 PC3 cells were plated in each well of the 6-well dishes (Costar) and allowed to attach overnight at 37°C with 5% CO2. The cells were treated with d-wrwycr or d-wrwyrggrywrw for 24 or 48 h respectively. For PC3 cells media along with the dodecamer treatments were collected for a separate run in HPLC. PC3 or HeLa cells were lysed using a lysis buffer containing 0.71% NP40, 71 mM Tris (pH 7.5), 0.71 mM EDTA and 212 mM NaCl on ice for 5–10 mins. The lysates were centrifuged at 13,000 g for 7 mins to clear cellular debris. The samples were analyzed by HPLC (Beckman Coulter System Gold BioEssential 126/168) using a Phenomonex Jupiter 4 micron Proteo 90A C18 hydrophobic column to detect the peptides within the cells. […] The intracellular concentration was calculated by taking into account the area under the peptide peaks, using the integration function of 32 Karat software (Beckman Coulter, Fullerton, California), and comparing them to the standard curve of the peptide. […] The extracellular concentration of wrwyrggrywrw was calculated by running the media similarly in HPLC and comparing them to the standard curve of wrwyrggrywrw.
To investigate whether peptide wrwycr or wrwyrggrywrw accumulated within cells, the concentration of the unlabeled and unmodified peptides was directly determined using an HPLC-based method. […]

[4] = tested on: GRP78 promoter in HeLa cells; experiment: Luciferase reporter assay for ER stress; assay type: cell-based; details: positive control
Protocol: HeLa cells were transfected with either either 15 µg of plasmid DJT208, carrying the GRP78 promoter (pGRP78) driving the ER-stress response elements ERSE 1, ERSE 2 and ERSE 3 upstream of the luciferase gene, or 15 µg of the plasmid GL2P, carrying the luciferase gene driven by the SV40 promoter (pSV40). All cells were also co-transfected with 10 µg of the PB1 plasmid, carrying the β-galactosidase reporter transcribed by the SV40 promoter, as a transfection control. [The plasmids were generous gifts from Dr. Peter Belmont from Christopher Glembotski's Lab in SDSU]. After 24 h the cells were treated with increasing concentrations of wrwycr (100, 150 and 200 µM) for 24 h and the luciferase activity was measured using an OptocompII Luminometer. Tunicamycin (TM), a known inducer of ER stress, was used as a positive control for the experiment ER stress was calculated as the fold increase of luciferase gene expression from the GRP78 promoter over that from the SV40 promoter of pGL2P for the different concentrations of the peptide over DMSO, which is the solvent for the peptide, or over the media in the case of TM.

Compound: CC(=O)O[C@@]12CO[C@@H]1C[C@H](O)[C@@]1(C)C(=O)[C@H](O)C3=C(C)[C@@H](OC(=O)[C@H](O)[C@@H](NC(=O)OC(C)(C)C)c4ccccc4)C[C@@](O)([C@@H](OC(=O)c4ccccc4)[C@H]21)C3(C)C [docetaxel]
- cell survival (PC3 cells [1]; PC3, 10 nM docetaxel, 48 h): 90%
- cell survival (PC3 cells [1]; PC3, 50 nM docetaxel, 48 h): 80%

Compound: COc1cccc2c1C(=O)c1c(O)c3c(c(O)c1C2=O)C[C@@](O)(C(=O)CO)C[C@@H]3O[C@H]1C[C@H](N)[C@H](O)[C@H](C)O1 [doxorubicin]
- cell survival (PC3 cells [1]; PC3, 1 µM doxorubicin alone, time course, evident at 36 h (Figure 9B)): 80%
- cell survival (PC3 cells [1]; PC3, 2.5 µM doxorubicin alone, 48 h): 73%
- cellular population with activated Chk2 (Chk2 in PC3 cells): 50%

Compound: COc1cc([C@@H]2c3cc4c(cc3[C@@H](O[C@@H]3O[C@@H]5CO[C@@H](C)O[C@H]5[C@H](O)[C@H]3O)[C@H]3COC(=O)[C@H]23)OCO4)cc(OC)c1O [etoposide, reference compound]
- TUNEL-positive cells (HeLa cells; 1.3 µM etoposide alone): < 2%
- cytochrome C release and mitochondrial membrane potential [2]: loss of mitochondrial membrane potential and release of cytC

Compound: NC(=O)NO [hydroxyurea]
- TUNEL-positive cells (HeLa cells; 10 mM hydroxyurea alone): < 2%

Compound: OC[C@@H](O)[C@@H](O)[C@H](O)[C@@H](O)CO [sorbitol]
- TUNEL-positive cells (HeLa cells; 400 mM sorbitol with mock inhibitor z-FA-fmk): ~80%
- TUNEL-positive cells (HeLa cells; 400 mM sorbitol with z-VAD-fmk inhibitor): < 10%

Compound: N=C(N)NCCC[C@@H](NC(=O)CNC(=O)CNC(=O)[C@@H](CCCNC(=N)N)NC(=O)[C@@H](Cc1ccc(O)cc1)NC(=O)[C@@H](Cc1c[nH]c2ccccc12)NC(=O)[C@@H](CCCNC(=N)N)NC(=O)[C@H](N)Cc1c[nH]c2ccccc12)C(=O)N[C@H](Cc1ccc(O)cc1)C(=O)N[C@H](Cc1c[nH]c2ccccc12)C(=O)N[C@H](CCCNC(=N)N)C(=O)N[C@H](Cc1c[nH]c2ccccc12)C(N)=O [wrwyrggrywrw] (H-[dW][dR][dW][dY][dR]GG[dR][dY][dW][dR][dW]-NH2)
- IC50 (LnCAP cells): 25 µM
- IC50 (DuPro-1 cells): 25 µM
- IC50 (PC3 cells [1]; 48 h): 50 µM
- intracellular concentration (PC3 cells [3]; 25 µM input dose, PC3 cells, 48 h, cell lysate soluble fraction, HPLC C18 against standard curve, cell volume 1.6–2.4 pl): ~1 mM
- peptide in the media less than input (PC3 cells [3]; media with 10% FBS after treatment of PC3 cells, several input concentrations, HPLC (Figure 2Aii)): 5–10%

Compound: Tunicamycin
- pGRP78 Units ([4]; concentration not given): 425255±16205
- pSV40 Units ([4]; concentration not given): 4606±362.1
- pGRP78/pSV40 ([4]; over the media): 20.0±1.36
- pGRP78 Fold change ([4]; over the media): 7.9±0.09
- pSV40 Fold change ([4]; over the media): 0.4±0.02

Source: article PMC3828334, “Tumor Cell Death Mediated by Peptides That Recognize Branched Intermediates of DNA Replication and Repair” (PLoS ONE, 2013)
